What all share (format): cell-based
In assay [1] the test system is LNCaP/AR cells. Kind of assay: Inhibition of the proliferation of LNCap/AR cells (CCK-8). As to conditions: 144 h, read-out: LNCap/AR IC50. In outline: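 Proliferation was read by CCK-8 (OD 450 nm, 1 h) after six days of compound exposure. Cells were seeded at 1000 per well overnight, then dosed in duplicate over nine 3-fold steps with a top final concentration of 10 μM in 0.1% DMSO; IC50 was fitted from inhibition curves.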

Assay [2] deals with 22RV1 cells. The assay can be described thus: Inhibition of the proliferation of drug-resistant prostate cancer cell 22RV1 (CCK-8). As to conditions: Homo sapiens; 22RV1 cells (enzalutamide-resistant), same method. In outline:
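22RV1 cells, 1000/well in RPMI1640 with 10% FBS, treated in duplicate with 9-point 3-fold dilutions from 10 μM (0.1% DMSO final). After 6 days at 37 °C, CCK-8 added for 1 h and OD450 read. IC50 from dose-response inhibition fit.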

The subject of assay [3] is Androgen receptor (AR). Kind of assay: Down-regulation/degradation of AR determined by Western blot in CWR22RV1 cells. Particulars: concentration 100 nM, 24 h. The protocol:
(§1) The Down-Regulation on the Protein Expression of Androgen Receptors AR and Brd4 Determined by Western Blot CWR22RV1 cells (National Collection of Authenticated Cell Cultures. TCHu100) FBS (Gibco, Cat. No. 10099-141) 0.01M PBS (Biosharp. Cat. No. 162262) RIPM1640 (Hyclone, Cat. No. 308090.01) Penicillin-Streptomycin (Hyclone. Cat. No. SV30010) DMSO (Sigma. Cat. No. D5879) Centrifuge tube, 15 ml (Excell Bio. Cat. No. CS015-0001) Cell culture plate (Excell Bio. Cat. No. CS016-0128) 6-well cell culture cluster (Corning, Cat. No. 3516) RIPA lysate buffer (Beyotime, Cat. No. P0013B) Protein loading buffer (Beyotime, Cat. No. P0015L) CA protein assay kit (Beyotime, Cat. No. P0012) SDS-PAGE gel preparation kit (Chengdu Baihe Technology Co., Ltd. Cat. No. PG112) Anti-β-tubulin mouse mAb (Zen Bioscience, Cat. No. 200608) Androgen Receptor ([…]) XP Rabbit mAb (CST. Cat. No. 5153) Anti-cMyc(D3N8F) Rabbit mAb (CST. Cat. No. 13987) Anti-BRD4(E2A7X) rabbit mAb (CST, Cat. No. 13440) Peroxidase Affinipure(HRP) Goat Anti-Mouse IgG (Zen Bioscience, Cat. No. 511103) Peroxidase Affinipure(HRP) Goat Anti-Rabbit IgG (Zen Bioscience, Cat. No. 511203) TBST (Biosharp. Cat. No. B[…]) ECL chemiluminescence kit (Beyotime, Cat. No. […]1 cells were subcultured in cell culture media, and then the cells in good growth condition were seeded in a 6-well plate at 2 ml/well (1×10^6 cells/well), and cultured overnight in a 37° C., 5% CO2 cell incubator. 2) The drug was prepared as a 10 mM stock solution with dimethyl sulfoxide (DMSO). […] The plate was gently tapped to thoroughly mix. In addition, the experiment included negative control wells (containing equal amount of DMSO) and positive control wells. 3) After culturing 24 hi, the cells were lysed with RIPA cell lysate, and the protein was extracted. […] The first antibody (Androgen Receptor ([…]) XP Rabbit mAb. Anti-cMyc(D3N8F) Rabbit mAb, Anti-BRD4(E2A7X) rabbit mAb and Anti-β-Tubulin Mouse mAb) was added and incubated overnight at 4° C. The membrane was rinsed with TBST solution three times, 10 min for each time. The secondary antibody (horseradish peroxidase labeled goat anti mouse IgG) was added and incubated at room temperature for 2 h, and then the membrane was washed with TBST solution three times, 10 m for each time. Finally. ECL chemiluminescence solution was added, and then photos were taken with automatic chemiluminescence instrument to collect pictures for analysis.
For orientation: Immunoblotting shows a protein as a band on a membrane.

Assay [4] concerns the target T1, BRD4 (Homo sapiens, UniProt O60885).
T1 construct: CWR22RV1 cells were subcultured in cell culture media; endogenous in cells; host or cells: CWR22RV1 cells
Kind of assay: Down-regulation/degradation of BRD4 determined by Western blot in CWR22RV1 cells. As to conditions: concentration 100 nM, 24 h. The protocol:
as §1

Setting [5] is: LNCaP/AR cells, 6 days culture, CCK-8.

pIC50: −log10 of the molar value. Where two headings read alike, the source gives them in different places.

Take `Cc1ccc(-c2c(C)noc2C)cc1N(CCCCNc1ccc2c(c1)C(=O)N(C1CCC(=O)NC1=O)C2=O)c1ccc(C#N)c(Cl)c1` (stereo not drawn) [Compound 165, 2-Chloro-4-((5-(3,5-dimethylisoxazol-4-yl)-2-methylphenyl)(4-((2-(2,6-dioxopiperidin-3)-1,3-dioxyisoindolin-5-yl)amino)butyl)amino)benzonitrile]: the pIC50 in assay [1] (LNCaP/AR) is 5.70 to 6.30; in assay [2] it was below 5.70. The “AR (% degradation)” value in assay [3] is “C (49%-20% of the target protein was degraded)”. Moreover, in assay [4], the “BRD4 (% degradation)” value is listed as “A (>80% of the target protein was degraded)”.
As for `Cc1ccc(-c2c(C)noc2C)cc1N(C[C@H]1CC[C@H](CNc2cc3c(cc2F)CN(C2CCC(=O)NC2=O)C3=O)CC1)c1ccc(C2(C#N)CC2)cc1` (stereo partly drawn) [Compound 168], the pIC50 in assay [1] (setting [5]) and in assay [2] was above 7.00 throughout. Besides, in assay [3], the “AR (% degradation)” value was “C (49%-20% of the target protein was degraded)”. Further, the “BRD4 (% degradation)” value in assay [4] was “A (>80% of the target protein was degraded)”.
In the case of `Cc1ccc(-c2c(C)noc2C)cc1N(C[C@H]1CC[C@H](CNc2cc3c(cc2F)C(=O)N(C2CCC(=O)NC2=O)C3)CC1)c1ccc(C2(C#N)CC2)cc1` (stereo partly drawn) [Compound 169], the pIC50 in assay [1] (setting [5]) was 6.30 to 7.00; in assay [2] it was above 7.00. In addition, the “AR (% degradation)” value in assay [3] is “C (49%-20% of the target protein was degraded)”. Also, in assay [4], the “BRD4 (% degradation)” value is listed as “B (79%-50% of the target protein was degraded)”.
On to `Cc1ccc(-c2c(C)noc2C)cc1N(CCCNc1ccc2c(c1)C(=O)N(C1CCC(=O)NC1=O)C2=O)c1ccc(C2(C#N)CC2)cc1` (stereo not drawn) [Compound 172, 1-(4-((5-(3,5-Dimethylisoxazol-4-yl)-2-methylphenyl)(3-((2-(2,6-dioxopiperidin-3-yl)-1,3-dioxoisoindolin-5-yl)amino)propyl)amino)phenyl)cyclopropane-1-nitrile], for which the pIC50 in assay [1] (setting [5]) is 5.70 to 6.30; in assay [2], 6.30 to 7.00. For the same molecule, the “AR (% degradation)” value in assay [3] was “D (<20% of the target protein was degraded)”. Also, the “BRD4 (% degradation)” value in assay [4] is “D (<20% of the target protein was degraded)”.
Consider `Cc1ccc(-c2c(C)noc2C)cc1N(CC(C)OC1CN(c2ccc3c(c2)C(=O)N(C2CCC(=O)NC2=O)C3=O)C1)c1ccc(C2(C#N)CC2)cc1` (stereo not drawn) [Compound 174, 1-(4-((5-(3,5-Dimethylisoxazol-4-yl)-2-methylphenyl)(2-((1-(2-(2,6-dioxopiperidin-3-yl)-1,3-dioxoisoindolin-5-yl)azacyclobutane-3-yl)oxy)propyl)amino)phenyl)cyclopropane-1-nitrile], for which the pIC50 is 5.70 to 6.30 in assay [1] (setting [5]) and above 7.00 in assay [2]. The “AR (% degradation)” value in assay [3] is recorded as “D (<20% of the target protein was degraded)”. Further, in assay [4], the “BRD4 (% degradation)” value is listed as “D (<20% of the target protein was degraded)”.
`Cc1ccc(-c2c(C)noc2C)cc1N(CC(C)OC1CN(c2cc3c(cc2F)C(=O)N(C2CCC(=O)NC2=O)C3)C1)c1ccc(C2(C#N)CC2)cc1` (stereo not drawn) [Compound 178, 1-(4-((5-(3,5-dimethylisoxazol-4-yl)-2-methylphenyl)(2-((1-(2-(2,6-dioxopiperidin-3-yl)-6-fluoro-1-oxoisoindolin-5-yl)azetidin-3-yl)oxy)propyl)amino)phenyl)cyclopropane-1-nitrile]: the pIC50 in assay [1] (setting [5]) and in assay [2] was above 7.00 each time. Moreover, in assay [3], the “AR (% degradation)” value is “B (79%-50% of the target protein was degraded)”. Further, the “BRD4 (% degradation)” value in assay [4] is “A (>80% of the target protein was degraded)”.
Take `Cc1ccc(-c2c(C)noc2C)cc1N(CC(C)OC1CN(c2ccc3c(c2)CN(C2CCC(=O)NC2=O)C3=O)C1)c1ccc(C2(C#N)CC2)cc1` (stereo not drawn) [Compound 180, 1-(4-((5-(3,5-dimethylisoxazol-4-yl)-2-methylphenyl)(2-((1-(2-(2,6-dioxopiperidin-3-yl)-1-oxoisoindolin-5-yl)azacyclobutane-3-yl)oxy)propyl)amino)phenyl)cyclopropane-1-nitrile]: the pIC50 in assay [1] (setting [5]) and in assay [2] was above 7.00 each time. The “AR (% degradation)” value in assay [3] is “D (<20% of the target protein was degraded)”. For the same molecule, in assay [4], the “BRD4 (% degradation)” value was “A (>80% of the target protein was degraded)”.
In the case of `Cc1ccc(-c2c(C)noc2C)cc1N(C[C@H]1CC[C@H](CNc2ccc3c(c2)C(=O)N(C2CCC(=O)NC2=O)C3)CC1)c1ccc(C2(C#N)CC2)cc1` (stereo partly drawn) [Compound 193], the pIC50 in assay [1] (setting [5]) and in assay [2] was above 7.00 each time. Also, the “AR (% degradation)” value in assay [3] is given as “D (<20% of the target protein was degraded)”. Also, the “BRD4 (% degradation)” value in assay [4] is “B (79%-50% of the target protein was degraded)”.
As for `Cc1ccc(-c2c(C)noc2C)cc1N(C[C@H]1CC[C@H](CNc2ccc3c(c2)CN(C2CCC(=O)NC2=O)C3=O)CC1)c1ccc(C2(C#N)CC2)cc1` (stereo partly drawn) [Compound 194], the pIC50 in assay [1] (setting [5]) was 6.30 to 7.00; in assay [2], above 7.00. The “AR (% degradation)” value in assay [3] is reported as “D (<20% of the target protein was degraded)”. Also, the “BRD4 (% degradation)” value in assay [4] is “D (<20% of the target protein was degraded)”.

These data come from patent publication US20220257774A1, “AROMATIC AMINE AR AHD BET TARGETING PROTEIN DEGRADATION CHIMERA COMPOUND AND USE” (HINOVA PHARMACEUTICALS INC., priority 2019, published 2022).
